Results published in patent US10343977B2, “Tetrahydro-isohumulone derivatives, methods of making and using” (KINDEX PHARMACEUTICALS, INC., priority 2012, dated 2019).
Read-outs that look alike come from different tables or passages of the source.

Assays:
Assay type in all cases: cell-based
[1] = test system: LPS-mediated MIP-1α production in THP-1 cells; experiment: LPS-mediated MIP-1α production in THP-1 cells; conditions: Homo sapiens; for inhibition at 12.5 µM: 12.5 μM test compound, THP-1 cells, LPS 1 μg/ml, NI = no inhibition
Experimental: (§1) THIAA derivatives synthesized in Examples 1-19 were dissolved in dimethyl sufoxide (DMSO) and stored at −20° C. LPS was purchased from Sigma Chemicals (St. Louis, Miss.).
(§2) The effect of the THIAA derivatives on LPS-mediated MMP-9, IL-1β, ([…], MCP-1, RANTES, and MIP-1α was evaluated in THP-1 cells. Stimulation of THP-1 cells with LPS (1 μg/ml) activated the production of MMP-9, IL-1β, MCP-1, RANTES, and MIP-1α.
(§3) Results are summarized in Table 2, with data represented as % inhibition of inflammatory mediator production.

PPARα = biological target: T1, PPARα (Homo sapiens, UniProt Q07869); experiment: PPARα reporter assay (INDIGO Biosciences); conditions: for Emax at 12.5 µM: read-out: PPARα % GW590735 (20.6 nM)
T1 sequence (Q07869 1-468): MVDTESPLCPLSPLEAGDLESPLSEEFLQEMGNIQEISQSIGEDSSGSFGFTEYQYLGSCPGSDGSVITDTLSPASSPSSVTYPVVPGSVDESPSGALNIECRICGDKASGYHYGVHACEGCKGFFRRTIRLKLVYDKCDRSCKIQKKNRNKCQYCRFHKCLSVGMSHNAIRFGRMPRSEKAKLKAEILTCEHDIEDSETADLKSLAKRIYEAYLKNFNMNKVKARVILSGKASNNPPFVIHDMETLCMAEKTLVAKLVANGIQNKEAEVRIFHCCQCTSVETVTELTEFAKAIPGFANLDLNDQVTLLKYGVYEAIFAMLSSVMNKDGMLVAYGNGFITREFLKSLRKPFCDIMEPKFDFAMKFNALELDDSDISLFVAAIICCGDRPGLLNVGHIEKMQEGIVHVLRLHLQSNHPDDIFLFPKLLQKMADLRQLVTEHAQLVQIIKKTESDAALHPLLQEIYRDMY
Experimental: (§4) The functional effect of THIAA derivatives on PPARα and PPARγ activity was evaluated using a PPAR reporter assay (INDIGO Biosciences, Pa.). This assay utilizes non-human mammalian cells engineered to provide constitutive high level expression of PPARα, or PPARγ and containing a luciferase report gene specific to the appropriate PPAR. Following activation by agonist binding, PPAR induces expression of the luciferase reporter gene. Luciferase activity therefore provides a surrogate for measuring PPAR activity in agonist-treated cells.
(§5) 0.1% DMSO was used as a solvent control for each assay. Plates were incubated for 20 hours in a humidified incubator at 37° C. and 5% CO2. After incubation, the cell medium was discarded and the cells were treated with 100 μL of luciferase detection reagent for 15 minutes. Plates were analyzed using a luminometer (Victor2, Perkin Elmer). Average relative light unit (RLU) and standard deviation were measured.

[2] = test system: LPS-mediated MCP-1 production in THP-1 cells; experiment: LPS-mediated MCP-1 production in THP-1 cells; conditions: Homo sapiens; for inhibition at 12.5 µM: 12.5 μM test compound, THP-1 cells, LPS 1 μg/ml, NI = no inhibition
Experimental: as §1, §2, §3

PPARγ = biological target: T2, PPARγ (Homo sapiens, UniProt P37231); experiment: PPARγ reporter assay (INDIGO Biosciences); conditions: 20 h
T2 sequence (P37231 1-505): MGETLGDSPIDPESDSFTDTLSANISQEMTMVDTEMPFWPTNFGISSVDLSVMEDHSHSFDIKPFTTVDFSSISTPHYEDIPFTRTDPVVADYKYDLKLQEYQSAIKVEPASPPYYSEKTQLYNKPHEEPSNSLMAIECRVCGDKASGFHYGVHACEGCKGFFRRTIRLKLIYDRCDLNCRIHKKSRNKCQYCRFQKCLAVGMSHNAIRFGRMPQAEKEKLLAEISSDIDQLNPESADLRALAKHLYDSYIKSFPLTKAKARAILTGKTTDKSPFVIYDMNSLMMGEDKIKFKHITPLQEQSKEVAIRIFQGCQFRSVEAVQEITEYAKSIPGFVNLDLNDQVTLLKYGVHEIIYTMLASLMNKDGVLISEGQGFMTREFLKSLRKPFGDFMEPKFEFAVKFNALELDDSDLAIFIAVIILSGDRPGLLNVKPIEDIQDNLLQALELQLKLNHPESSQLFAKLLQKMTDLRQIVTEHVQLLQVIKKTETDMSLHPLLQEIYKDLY
Experimental: as §4, §5

[3] = test system: LPS-mediated inflammatory mediators in RAW264.7 and THP-1 cells; experiment: Mean inhibition across all six inflammatory mediators; conditions: for inhibition at 12.5 µM: 12.5 μM test compound
Experimental: (§6) The effect of the THIAA derivatives on LPS-mediated prostaglandin E2 (PGE2) and nitric oxide (NO) production was evaluated in a RAW264.7 murine macrophage model. The RAW 264.7 cell line was purchased from ATCC (Manassas, Va.) and maintained according to their instructions. Cells were grown and subcultured in 96-well plates at a density of 8×10^4 cells per well, and reached 80-90% confluence the next day. THIAA derivatives were added to the cells in serum-free medium at a final concentration of 0.1% DMSO. Following one hour of incubation with the THIAA derivatives, LPS (1 μg/ml) or DMEM medium alone was added to the cells and incubation was continued for 6 hours. Stimulation of RAW 264.7 cells with LPS (1 μg/ml) for 6 hours activated the production of PGE2 and NO. Supernatant media was collected for measurement of PGE2 levels. For NO, incubations were continued overnight. Supernatant media was collected for measurement of NO levels after 16 hours of stimulation. PGE2 levels were measured using assay kits from Assay Designs, (Ann Arbor, Mich.) and NO levels were measured using assay kits from Cayman Chemicals (Ann Harbor, Mich.).
as §2, §3
Mean inhibition across all six inflammatory mediators was calculated for each of the THIAA derivatives.

[4] = test system: LPS-mediated prostaglandin E2 (PGE2) production in RAW264.7 cells; experiment: LPS-mediated PGE2 production in RAW264.7 murine macrophage model; conditions: LPS 1 μg/ml, NI = no inhibition
Experimental: as §1, §6, §3

[5] = test system: LPS-mediated IL-6 production in THP-1 cells; experiment: LPS-mediated IL-6 production in THP-1 cells; conditions: Homo sapiens; for inhibition at 12.5 µM: 12.5 μM test compound, THP-1 cells, LPS 1 μg/ml, NI = no inhibition
Experimental: as §1, §2, §3

[6] = test system: LPS-mediated nitric oxide (NO) production in RAW264.7 cells; experiment: LPS-mediated NO production in RAW264.7 murine macrophage model; conditions: Mus musculus, LPS 1 μg/ml; for inhibition at 12.5 µM: 12.5 μM test compound, NI = no inhibition
Experimental: as §1, §6, §3

[7] = test system: LPS-mediated RANTES production in THP-1 cells; experiment: LPS-mediated RANTES production in THP-1 cells; conditions: Homo sapiens; for inhibition at 12.5 µM: 12.5 μM test compound, THP-1 cells, LPS 1 μg/ml, NI = no inhibition
Experimental: as §1, §2, §3

[8] = 12.5 μM test compound, luciferase reporter cells, 20 hours, activity compared to GW590735
[9] = read-out: PPARγ % rosiglitazone (500 nM), 12.5 μM test compound, luciferase reporter cells, 20 hours, activity compared to rosiglitazone
[10] = Mus musculus, RAW264.7, 6 h, 12.5 μM test compound

SMILES | inhibition at 12.5 µM [1] [%] | inhibition at 12.5 µM [2] [%] | inhibition at 12.5 µM [3] [%] | inhibition at 12.5 µM [5] [%] | inhibition at 12.5 µM [7] [%] | Emax at 12.5 µM (PPARα; [8]) [%] | Emax at 12.5 µM (PPARγ; [9]) [%] | inhibition at 12.5 µM [4, 10] [%] | inhibition at 12.5 µM ([6]; RAW264.7, 16 h) [%] | PPARα % GW590735 (20.6 nM) (PPARα; [8]) | other results
CC(C)CCC(=O)[C@@]1(O)C([O-])=C(C(=O)CC(C)C)C(=O)[C@@H]1CCC(C)C.[K+] (stereo in doubt) [KDT501, Potassium salt of (+)-KDT500] | 62 | 77 | 48 | 49 | 77 | – | – | – | – | – | Emax at 12.5 µM (PPARα; 20 h): < 5%; Emax at 12.5 µM (PPARγ; read-out: PPARγ % rosiglitazone (500 nM)): 31%; % inhibition of PGE2 production ([4]; 12.5 μM test compound, 6 hours): No inhibition (NI); inhibition at 12.5 µM ([6]; 16 hours): 23%
Cc1nc(-c2ccc(C(F)(F)F)cc2)sc1C(=O)NCc1ccc(OC(C)(C)C(=O)O)cc1 [GW590735, reference compound] | – | – | – | – | – | – | – | – | – | – | PPARα activity (positive control) (PPARα; GW590735 21-5000 nM, luciferase reporter cells, 20 hours): increased the activity
CO/N=C(/CC(C)C)C1=C(O)[C@](O)(/C(CCC(C)C)=N/OC)[C@@H](CCC(C)C)C1=O [KDT0001/2, (4R,5R)-3,4-dihydroxy-2-(N-methoxy-3-methylbutanimidoyl)-4-(N-methoxy-4-methylpentanimidoyl)-5-(3-methylbutyl)cyclopent-2-en-1-one] | < 20 | 74 | 39 | 60 | 45 | < 5 | < 5 | 55 | < 0 | – | –
CO/N=C(/CC(C)C)C1=C(O)[C@](O)(C(O)CCC(C)C)[C@@H](CCC(C)C)C1=O (stereo partly drawn) [KDT0005, (4R,5R)-3,4-dihydroxy-4-(1-hydroxy-4-methylpentyl)-2-(N-methoxy-3-methylbutanimidoyl)-5-(3-methylbutyl)cyclopent-2-en-1-one] | 20 | 38 | < 20 | < 20 | 25 | < 5 | < 5 | < 0 | < 0 | – | –
CC(C)CCC(=O)[C@@]1(O)C(=O)/C(=C(\CC(C)C)NCCO)C(=O)[C@@H]1CCC(C)C [KDT0017, (4R,5R)-4-hydroxy-2-{1[(2-hydroxyethyl)amino]-3-methylbutylidene}-5-(3-methylbutyl)-4-(4-methylpentanoyl)cyclopentane-1,3-dione] | < 0 | 80 | 23 | 50 | < 0 | < 5 | < 5 | < 0 | < 20 | – | –
CN/C(CC(C)C)=C1\C(=O)[C@H](CCC(C)C)[C@@](O)(C(=O)CCC(C)C)C1=O [KDT0020, (4R,5R)-4-hydroxy-5-(3-methylbutyl)-2-[3-methyl-1-(methylamino)butylidene]-4-(4-methylpentanoyl)cyclopentane-1,3-dione] | < 20 | 82 | 46 | 70 | 35 | < 5 | < 5 | 75 | < 20 | – | –
CC(C)CCC(=O)[C@@]1(OC(=O)C(C)(C)C)C(O)=C(C(=O)CC(C)C)C(=O)[C@@H]1CCC(C)C [KDT0033, (1S,5R)-2-hydroxy-3-(3-methylbutanoyl)-5-(3-methylbutyl)-1-(4-methylpentanoyl)-4-oxocyclopent-2-en-1-yl 2,2-dimethylpropanoate] | 95 | 100 | ~90 | 87 | 97 | < 5 | ≥ 5 | – | > 50 | no effect | –
CC(C)CCC(=O)[C@@]1(OC(=O)CC(C)(C)C)C(O)=C(C(=O)CC(C)C)C(=O)[C@@H]1CCC(C)C [KDT0034, (1S,5R)-2-hydroxy-3-(3-methylbutanoyl)-5-(3-methylbutyl)-1-(4-methylpentanoyl)-4-oxocyclopent-2-en-1-yl 3,3-dimethylbutanoate] | 94 | 100 | ~90 | 84 | 98 | 9 | 5 | – | > 50 | dual PPARα and PPARγ agonists | –
CC(C)CCC(=O)[C@@]1(OC(=O)OCC(C)C)C(O)=C(C(=O)C(C)C)C(=O)[C@@H]1CCC(C)C [KDT0037, (1S,5R)-2-hydroxy-5-(3-methylbutyl)-1-(4-methylpentanoyl)-3-(2-methylpropanoyl)-4-oxocyclopent-2-en-1-yl 2-methylpropyl carbonate] | 22 | 98 | 72 | 61 | 83 | < 5 | – | – | – | no effect | –
CN(CCOc1ccc(CC2SC(=O)NC2=O)cc1)c1ccccn1 (stereo not drawn) [Rosiglitazone, reference compound] | – | – | – | – | – | – | – | – | – | – | inhibition at 10 µM ([1]; THP-1): < 0%; inhibition at 10 µM ([2]; THP-1): < 0%; inhibition at 10 µM ([3]; 10 μM (rosiglitazone)): < 20%; inhibition at 10 µM ([4]; Mus musculus, RAW264.7, 6 h, 10 μM (rosiglitazone)): < 0%; inhibition at 10 µM ([5]; THP-1): < 0%; inhibition at 10 µM ([6]; RAW264.7, 16 h, 10 μM (rosiglitazone)): 6%; inhibition at 10 µM ([7]; THP-1): 24%
